What was measured:
[1] = biological target: N-terminal truncated Wee 1 (Homo sapiens, UniProt P30291); assay: Wee 1 OY kinase assay; type: biochemical; conditions: read-out: WEE1OY IC50
Protocol: These kinase assays are carried out on 96-well filter plates (Millpore, Cat. MADPN0B50) in 50 μL kinase assay buffer (50 mM Tris, pH 8.0, 10 mM NaCl, 10 mM MgCl2, 10 μM ATP with 0.25 μCi [r-32P]ATP, 1 mM DTT) with 0.1 μg purified N-terminal truncated Wee 1 and 6 μg poly(Orn, Tyr)4:1 (Sigma, P4534). The assay is started by adding ATP and incubating at room temperature for 20 minutes with shaking. The reactions are terminated by adding 50 μL ice-cold 20% TCA (trichloracetic acid) with 0.1 M sodium pyrophosphate and shaking the resultant mixture for 1 minute. The plate is then incubated at 4° C. for 1 hour to allow protein to precipitate. These plates are then washed 5 times with 200 μL ice-cold 10% TCA and with 0.1 M sodium pyrophosphate per wash. Twenty-five microliters scintillation liquid is then added to each well, and the plate is counted in Wallac's MicroBeta counter 1450.

C-src kinase = C-src kinase (Homo sapiens, UniProt P12931); assay: C-src kinase assay; type: biochemical
Protocol: C-src kinase was purified from baculovirus infected insect cell lysates using an antipeptide monoclonal antibody directed against the N-terminal amino acids (amino acids 2–17) of c-src. The antibody, covalently linked to 0.65 μm latex beads, was added to a suspension of insect cell lysis buffer comprised of 150 mM NaCl, 50 mM Tris pH 7.5, 1 mM DTT, 1% NP-40, 2 mM EGTA, 1 mM sodium vanadate, 1 mM PMSF, 1 μg/mL each of leupeptin, pepstatin, and aprotinin. Insect cell lysate containing c-src protein was incubated with these beads for 3 to 4 hours at 4° C. with rotation. At the end of the lysate incubation, the beads were rinsed three times in lysis buffer, resuspended in lysis buffer containing 10% glycerol, and frozen. These latex beads were thawed, rinsed three times in assay buffer (40 mM Tris, pH 7.5, 5 mM mgCl2) and suspended in the same buffer. In a Millipore 96-well plate with a 0.65 μm polyvinylidine membrane bottom were added the reaction components: 10 μL C-src beads, 10 μL of 2.5 mg/mL poly GluTyr substrate, 5 μM ATP containing 0.2 μCi labeled ^32P-ATP, 5 μL DMSO containing inhibitors or as a solvent control, and buffer to make the final volume 125 μL. The reaction was started at room temperature by addition of the ATP and quenched 10 minutes later by the addition of 125 μL of 30% TCA, 0.1 M sodium pyrophosphate for 5 minutes on ice. The plate was then filtered and the wells washed with two […] aliquots of 15% TCA, 0.1 M pyrophosphate. The filters were then punched, counted in a liquid scintillation counter, and the data examined for inhibitory activity in comparison to a known inhibitor such as erbstatin. The method is also described in J. Med. Chem., 1994;37:598–609.

[2] = biological target: T1, human FGF-1 (flg) receptor tyrosine kinase (Homo sapiens, UniProt P11362); assay: FGF receptor tyrosine kinase assay; type: biochemical; conditions: read-out: FGF % @ concentration; for inhibition at 5 µM: @ 5 (unit μm); for inhibition at 0.5 µM: @ 0.5 (unit μm)
T1 construct: amplify a fragment of DNA that codes for the intracellular tyrosine kinase domain; made in house; host or cells: SF9 insect cells (baculovirus)
Description: (§1) Full-length cDNAs for the mouse PDGF-β and human FGF-1 (flg) receptor tyrosine kinases were obtained from J. Escobedo and prepared as described in J. Biol. Chem., 1991;262:1482–1487. PCR primers were designed to amplify a fragment of DNA that codes for the intracellular tyrosine kinase domain. The fragment was inserted into a baculovirus vector, cotransfected with AcMNPV DNA, and the recombinant virus isolated. SF9 insect cells were infected with the virus to overexpress the protein, and the cell lysate was used for the assay. Assays were performed in 96-well plates (100 μL/incubation/well), and conditions were optimized to measure the incorporation of ^32P from γ^32P-ATP into a glutamate-tyrosine co-polymer substrate. Briefly, to each well was added 82.5 μL of incubation buffer containing 25 mM Hepes (pH 7.0), 150 mM NaCl, 0.1% Triton X-100, 0.2 mM PMSF, 0.2 mM Na3VO4, 10 mM MnCl2, and 750 μg/mL of Poly (4:1) glutamate-tyrosine followed by 2.5 μL of inhibitor and 5 μL of enzyme lysate (7.5 μg/μL FGF-TK or 6.0 μg/μL PDGF-TK) to initiate the reaction. Following a 10 minute incubation at 25° C., […] of γ^32P-ATP (0.4 μCi plus 50 μM ATP) was added to each well, and samples were incubated for an additional 10 minutes at 25° C. The reaction was terminated by the addition of 100 μL of 30% TCA containing 20 mM sodium pyrophosphate and precipitation of material onto glass fiber mats (Wallac). Filters were washed three times with 15% TCA containing 100 mM sodium pyrophosphate, and the radioactivity retained on the filters counted in a Wallac 1250 Betaplate reader. Nonspecific activity was defined as radioactivity retained on the filters following incubation of samples with buffer alone (no enzyme). Specific enzymatic activity (enzyme plus buffer) was defined as total activity minus nonspecific activity. The concentration of a compound that inhibited specific activity by 50% (IC50) was determined based on the inhibition curve.

[3] = biological target: T2, mouse PDGF-β receptor tyrosine kinase (Mus musculus, UniProt P05622); assay: PDGF receptor tyrosine kinase assay; type: biochemical
T2 construct: amplify a fragment of DNA that codes for the intracellular tyrosine kinase domain; made in house; host or cells: SF9 insect cells (baculovirus)
Description: as §1

cdk4/cyclin D1 complex = cdk4/cyclin D1 complex (Homo sapiens, UniProt P11802); assay: Cyclin-dependent kinase 4 (CDK4) assay; type: biochemical; conditions: cyclin dependent kinase 4/cyclin D1 complex; read-out: CDK4D IC50
Protocol: Enzyme assays for IC50 determinations (Table 1) and kinetic evaluation were performed in 96-well filter plates (Millipore MADVN6550) The total volume was 0.1 mL containing a final concentration of 20 mM TRIS (tris[hydroxmethyl]aminomethane), at pH 7.4, 50 mM NaCl, 1 mM dithiothreitol, 10 mM mgCl2, 25 μM ATP containing 0.25 μCi of [^32P]ATP, 20 ng of cdk4/cyclin D1 complex, 1 μg of retinoblastoma and appropriate dilutions of a compound of the present invention. All components except the ATP were added to the wells, and the plate was placed on a plate mixer for 2 minutes. The reaction was started by adding [^32P]ATP and the plate incubated at 25° C. for 15 minutes. The reaction was terminated by addition of 0.1 mL of 20% TCA. The plate was kept at 4° C. for at least 1 hour to allow the substrate to precipitate. The wells were then washed five times with 0.2 mL of 10% TCA and ^32p incorporation determined with a beta plate counter (Wallac Inc., Gaithersburg, Md.).

cdk2/cyclinA = cdk2/cyclinA (Homo sapiens, UniProt P24941); assay: Cyclin-dependent kinase assay cdk2/cyclinA; type: biochemical; conditions: cyclin dependent kinase 2/cyclin A complex; read-out: CDK2A IC50
Protocol: (§2) All components except the ATP were added to the wells, and the plate was placed on a plate mixer for 2 minutes. The reaction was begun by addition of [^32P]ATP, and the plate was incubated at 25° C. for 15 minutes. The reaction was terminated by addition of 0.1 mL of 20% TCA. The plate was kept at 4° C. for at least 1 hour to allow the substrate to precipitate. The wells were then washed five times with 0.2 mL of 10% TCA and ^32P incorporation determined using a beta plate counter (Wallac Inc., Gaithersburg, Md.).

cdk2/cyclinE = cdk2/cyclinE (Homo sapiens, UniProt P24941); assay: Cyclin-dependent kinase assay cdk2/cyclinE; type: biochemical; conditions: cyclin dependent kinase 2/cyclin E complex; read-out: CDK2E IC50
Protocol: as §2

cdc2/cyclinB = cdc2/cyclinB (Homo sapiens, UniProt P06493); assay: Cyclin-dependent kinase assay cdc2/cyclinB; type: biochemical; conditions: cyclin dependent kinase 1/cyclin B complex; read-out: CDK1B IC50
Protocol: as §2

T1 sequence (P11362 478-767 limits assumed): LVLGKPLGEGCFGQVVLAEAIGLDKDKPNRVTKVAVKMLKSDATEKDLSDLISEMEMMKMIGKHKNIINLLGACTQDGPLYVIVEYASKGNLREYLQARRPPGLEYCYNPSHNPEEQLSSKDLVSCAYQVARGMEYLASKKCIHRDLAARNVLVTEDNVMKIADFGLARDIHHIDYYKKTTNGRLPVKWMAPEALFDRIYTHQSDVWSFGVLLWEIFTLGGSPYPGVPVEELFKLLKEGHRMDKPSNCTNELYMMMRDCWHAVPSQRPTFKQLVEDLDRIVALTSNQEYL
Chain of N-terminal truncated Wee 1 (P30291 299-569 limits assumed): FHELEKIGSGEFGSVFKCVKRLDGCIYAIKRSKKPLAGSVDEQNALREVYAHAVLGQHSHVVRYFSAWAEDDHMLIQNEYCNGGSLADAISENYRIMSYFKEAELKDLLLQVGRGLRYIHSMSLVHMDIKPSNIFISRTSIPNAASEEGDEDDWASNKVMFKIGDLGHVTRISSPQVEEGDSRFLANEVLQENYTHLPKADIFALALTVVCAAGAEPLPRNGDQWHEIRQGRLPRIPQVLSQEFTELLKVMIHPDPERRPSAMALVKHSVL
Chain of C-src kinase (P12931 whole entry, the tested form may be a part): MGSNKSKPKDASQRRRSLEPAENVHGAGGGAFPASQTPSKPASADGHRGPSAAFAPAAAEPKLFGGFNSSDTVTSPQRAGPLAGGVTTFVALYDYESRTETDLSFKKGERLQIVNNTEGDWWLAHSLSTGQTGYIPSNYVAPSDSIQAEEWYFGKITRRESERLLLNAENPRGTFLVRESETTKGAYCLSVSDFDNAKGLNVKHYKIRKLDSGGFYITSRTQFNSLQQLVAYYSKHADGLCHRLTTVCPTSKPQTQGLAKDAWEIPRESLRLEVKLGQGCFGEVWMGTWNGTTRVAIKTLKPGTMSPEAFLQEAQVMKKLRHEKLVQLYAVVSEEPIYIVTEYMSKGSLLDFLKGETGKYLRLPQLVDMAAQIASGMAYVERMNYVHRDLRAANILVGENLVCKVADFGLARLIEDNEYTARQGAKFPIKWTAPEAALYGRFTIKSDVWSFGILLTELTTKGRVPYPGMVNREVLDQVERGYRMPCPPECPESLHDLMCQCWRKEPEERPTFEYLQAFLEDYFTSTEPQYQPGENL
Chain of cdc2/cyclinB (P06493 whole entry, species assumed): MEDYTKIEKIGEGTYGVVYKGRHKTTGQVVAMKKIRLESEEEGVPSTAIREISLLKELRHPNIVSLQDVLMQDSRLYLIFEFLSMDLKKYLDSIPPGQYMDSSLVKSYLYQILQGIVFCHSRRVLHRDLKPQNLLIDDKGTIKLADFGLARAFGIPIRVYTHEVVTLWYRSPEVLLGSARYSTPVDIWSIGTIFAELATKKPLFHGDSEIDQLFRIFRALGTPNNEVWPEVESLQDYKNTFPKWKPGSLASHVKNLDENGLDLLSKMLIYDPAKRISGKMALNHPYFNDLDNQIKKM
Chain of cdc2/cyclinB (P14635 whole entry partner, species assumed): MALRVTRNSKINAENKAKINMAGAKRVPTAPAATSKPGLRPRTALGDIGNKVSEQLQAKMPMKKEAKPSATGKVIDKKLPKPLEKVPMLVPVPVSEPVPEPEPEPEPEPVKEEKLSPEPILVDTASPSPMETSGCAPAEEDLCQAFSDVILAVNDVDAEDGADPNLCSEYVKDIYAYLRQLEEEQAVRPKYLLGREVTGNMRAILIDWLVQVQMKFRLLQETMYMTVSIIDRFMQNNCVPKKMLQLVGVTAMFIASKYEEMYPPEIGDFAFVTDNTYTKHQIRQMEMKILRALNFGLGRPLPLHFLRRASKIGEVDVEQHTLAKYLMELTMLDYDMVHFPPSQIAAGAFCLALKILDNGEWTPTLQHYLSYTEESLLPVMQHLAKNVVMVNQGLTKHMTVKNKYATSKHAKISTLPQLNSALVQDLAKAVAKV
Chain of cdk4/cyclin D1 complex (P11802 whole entry, species assumed): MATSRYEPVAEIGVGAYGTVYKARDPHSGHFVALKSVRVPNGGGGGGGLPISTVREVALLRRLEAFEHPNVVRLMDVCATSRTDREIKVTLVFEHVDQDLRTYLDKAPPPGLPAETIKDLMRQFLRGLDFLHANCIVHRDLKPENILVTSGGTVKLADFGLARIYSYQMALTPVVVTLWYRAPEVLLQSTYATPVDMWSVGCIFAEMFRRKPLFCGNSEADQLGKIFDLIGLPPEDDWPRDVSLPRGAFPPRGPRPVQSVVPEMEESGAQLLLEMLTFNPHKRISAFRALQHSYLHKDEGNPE
Chain of cdk4/cyclin D1 complex (P24385 whole entry partner, species assumed): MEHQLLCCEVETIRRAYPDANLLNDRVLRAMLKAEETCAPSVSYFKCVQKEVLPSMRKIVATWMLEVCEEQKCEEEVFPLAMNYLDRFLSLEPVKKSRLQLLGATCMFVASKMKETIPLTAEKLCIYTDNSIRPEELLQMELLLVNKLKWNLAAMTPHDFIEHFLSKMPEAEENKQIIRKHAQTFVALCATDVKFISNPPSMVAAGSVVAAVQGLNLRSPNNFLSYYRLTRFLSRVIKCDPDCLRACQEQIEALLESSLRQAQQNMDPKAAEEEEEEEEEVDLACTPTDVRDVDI
T2 sequence (P05622 599-961 limits assumed): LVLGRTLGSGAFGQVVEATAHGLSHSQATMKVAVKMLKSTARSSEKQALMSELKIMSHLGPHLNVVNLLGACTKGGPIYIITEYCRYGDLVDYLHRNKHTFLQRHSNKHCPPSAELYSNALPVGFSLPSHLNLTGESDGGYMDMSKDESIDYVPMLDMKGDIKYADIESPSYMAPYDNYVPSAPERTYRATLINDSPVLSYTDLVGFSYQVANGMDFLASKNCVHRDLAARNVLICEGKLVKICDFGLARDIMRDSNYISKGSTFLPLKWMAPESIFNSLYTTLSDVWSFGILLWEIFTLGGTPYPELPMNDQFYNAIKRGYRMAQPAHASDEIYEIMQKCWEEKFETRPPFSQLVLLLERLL

Structure (SMILES)	IC50 [1]	IC50 (C-src kinase)	inhibition at 5 µM [2]	IC50 [3]	IC50 (cdk4/cyclin D1 complex)	IC50 (cdk2/cyclinA)	IC50 (cdk2/cyclinE)	melting point	inhibition at 0.5 µM [2]	PDGF % @ concentration ([3]; @ 5 (unit μm))	inhibition at 50 µM ([2]; @ 50 (unit μm))	IC50 (cdc2/cyclinB)
Cc1nc2cnc(Nc3ccc(N4CCN(C)CC4)cc3)nc2n(C2CCCC2)c1=O [Compound 9, 8-Cyclopentyl-6methyl-2-[[4-(4-methylpiperazin-1-yl)phenyl]amino]-8H-pteridin-7-one]	> 50 µM	3 µM			47 nM	2780 nM	41000 nM	210 to 211 °C	41%	59% @ 5		
Cc1nc2cnc(Nc3ccc(N4CCOCC4)cc3)nc2n(C2CCCC2)c1=O [Compound 10, 8-Cyclopentyl-6-methyl-2-[[4-(morpholin-4-yl)phenyl]amino]-8H-pteridin-7-one]	> 50 µM	34 µM		> 50 µM	440 nM	1840 nM	8000 nM	230 to 234 °C			57%	
CC(C)(C)OC(=O)N1CCN(c2ccc(Nc3ncc4ncc(=O)n(C5CCCC5)c4n3)cc2)CC1 [Compound 52, 2-[[4-[4(tert-Butoxycarbonyl)piperazin-1-yl]phenyl]amino]-8-cyclopentyl-8H-pteridin-7-one]		> 50 µM			1800 nM	530 nM	4500 nM	215 to 217 °C				

The next lines start with the values.

IC50 [1]	IC50 (C-src kinase)	inhibition at 5 µM [2]	IC50 [3]	IC50 (cdk4/cyclin D1 complex)	IC50 (cdk2/cyclinA)	IC50 (cdk2/cyclinE)	melting point	inhibition at 0.5 µM [2]	PDGF % @ concentration ([3]; @ 5 (unit μm))	inhibition at 50 µM ([2]; @ 50 (unit μm))	IC50 (cdc2/cyclinB)	Structure (SMILES)
> 50 µM	8.47 µM	33%	12 µM	60 nM	64 nM	650 nM	182 to 184 °C					O=c1cnc2cnc(Nc3ccc(N4CCOCC4)cc3)nc2n1C1CCCC1 [Compound 7, 8-Cyclopentyl-2-[[4-(morpholin-4-yl)phenyl]amino]-8H-pteridin-7-one]
> 50 µM	3.35 µM		6 µM	41 nM	260 nM	950 nM	208 to 211 °C	41%				CN1CCN(c2ccc(Nc3ncc4ncc(=O)n(C5CCCC5)c4n3)cc2)CC1 [Compound 8, 8-Cyclopentyl-2-[[4-(4methylpiperazin-1-yl)phenyl]amino]-8H-pteridin-7-one]
> 50 µM	11 µM	31%	> 50 µM	1250 nM	36 nM	50 nM	236 to 238 °C				354 nM	O=c1cnc2cnc(Nc3ccncc3)nc2n1C1CCCC1 [Compound 11, 8-Cyclopentyl-2-[(pyridin-4-yl)amino]-8H-pteridin-7-one]
	3.3 µM			7 nM	180 nM	610 nM					750 nM	O=c1cnc2cnc(Nc3ccc(N4CCNCC4)cc3)nc2n1C1CCCC1 [Compound 16, 8-Cyclopentyl-2-[[4-(piperazin-1-yl)phenyl]amino]-8H-pteridin-7-one]
			2.19 µM	43.5 nM	94 nM	1900 nM					400 nM	NC1CCN(c2ccc(Nc3ncc4ncc(=O)n(C5CCCC5)c4n3)cc2)C1 (centres unmarked) [Compound 17, 2-[[4-(3-Aminopyrrolidin-1-yl)phenyl]amino]-8-cyclopentyl-8H-pteridin-7-one]
